Data as given in patent EP2284541A1, “Fluorescence-based imaging and analysis of cells and cellular components using lipophilic dyes with improved specificity, spectral property and photostability” (Max-Planck-Gesellschaft zur Förderung der Wissenschaften …, priority 2009, dated 2011).
Where “and” joins values, the source holds several entries; their conditions need not be identical. Equal values may be shown once. Read-outs that look alike come from different tables or passages of the source.

Tests used:
[1] = Comparative lipophilicity: log P by direct solvent partitioning, measured in the fluorometer; format: physicochemical; settings: for log P: average, dye 0.1 µg/ml; for Δlog P: LD540 versus Bodipy 493/503
Protocol: Dyes were dissolved in octanol-saturated water or oil-saturated methanol at a concentration of 0.1 μg/ml, measured in the fluorometer and shaken with an equal volume of water-saturated octanol or methanol-saturated oil for 20 min. Phases were separated by centrifugation. For octanol/water coefficients, the concentration of dye in the water phase was measured and used for calculations of log P. For the oil/methanol system, 10 μl samples of both phases were taken, diluted into 990 μl of isopropanol and measured in the fluorometer. The ratio was used for calculation of log p. Values obtained in the octanol/water system indicated higher lipophilicity of LD540. Since log P values larger 3 obtained by direct solvent partitioning are prone to errors, we also measured in the immiscible pair sunflower oil/methanol, where log p values for lipophilic substances are much smaller and less error prone. […] All values are average +/- […] values were determined by Students t-test.

[2] = Spectral characteristics (excitation and emission maxima) in various solvents and in stained cells, spectrofluorometer; format: physicochemical; settings: Ethanol, 2 x 10^-4 M
[3] = as above; format: physicochemical
Protocol: Spectra were measured on a Jobin Yvon Fluoromax3 spectrofluorometer at 3 x 10^-7 M. Differentiated 3T3-L1 cells were stained with 0.2 µg/ml LD540 in DMEM + 10% FCS for 30 min, followed by three washes. Cells were trypsinized, suspended at 100.000 cells/ml in PBS and measured in a fluorescence cuvette.
^#Note that the excitation maximum fits to the one reported in U.S. Patent No. 5,446,157, while the emission maximum in said reference was indicated to be 560 nm.

[4] = Photobleaching of dyes in sunflower oil under constant illumination in a photometer cuvette; format: physicochemical; settings: 0.1 µg/ml in sunflower oil; constant irradiation at absorption maximum
Protocol: In a first experiment, the different dyes to be compared (LD540, Nile Red and Bodipy 493/503) were dissolved at 0.1 µg/ml in sunflower oil (which represents the cellular environment of the dyes) and constantly irradiated in a photometer cuvette at their respective absorption maximum. Excitation energy was equal for all three dyes. Every 15 seconds, fluorescence emission was recorded. […] The slope of the curves are directly proportional to the respective rate of photobleaching. Under these conditions, LD540 bleaches 3-times slower than Nile Red and 15-times slower than Bodipy 493/503.

[5] = reported in U.S. Patent No. 5,446,157; cited from earlier work
[6] = Oil/methanol (sunflower oil), n = 3
[7] = 3T3-L1 cells stained with 0.2 µg/ml LD540, suspended in PBS

Compound	log P ([1]; Octanol/water, n = 7)	log P [1, 6]	Δlog P ([1]; Octanol/water)	Δlog P ([1]; Oil/methanol)	emission maximum ([2]; 1 mm cuvette) [nm]	emission maximum ([2]; 4 mm cuvette) [nm]	Λ max exc [3, 7]	λ max em [3, 7]	Λ max exc ([3]; Ethanol, 3 x 10^-7 M) [nm]	λ max em ([3]; Ethanol, 3 x 10^-7 M) [nm]	Λ max exc ([3]; Hexane, 3 x 10^-7 M) [nm]	λ max em ([3]; Hexane, 3 x 10^-7 M) [nm]	Λ max exc ([3]; Sunflower oil, 3 x 10^-7 M) [nm]	λ max em ([3]; Sunflower oil, 3 x 10^-7 M) [nm]	Λ max exc ([3]; Water, 3 x 10^-7 M) [nm]	λ max em ([3]; Water, 3 x 10^-7 M) [nm]	bleaching, times slower than Nile Red [4]	emission maximum [5] [nm]	excitation maximum [5] [nm]
CC1=CC(C)=[N+]2C1=C(C)c1c(C)cc(C)n1[B-]2(F)F [Bodipy 493/503, reference compound]	3.50	0.31																	
CC1=C2C=C3CCCCC3=[N+]2[B-](F)(F)n2c1cc1c2CCCC1 [LD540]	4.38	0.75	0.88	0.44	550	557	540 nm and 540.2 nm	545 nm and 545.0 nm	536.0	542.5	539.7	542.2	540.2	545.2	534.8	542.4	3	560	535
